According to US20260085058A1, “DEGRADERS OF SON OF SEVENLESS HOMOLOG 1” (H. LEE MOFFITT CANCER CENTER AND RESEARCH INSTITUTE, INC., priority 2022, published 2026):

Target: T1, SOS1 (Homo sapiens, UniProt Q07889)
T1 sequence (Q07889 1-1333): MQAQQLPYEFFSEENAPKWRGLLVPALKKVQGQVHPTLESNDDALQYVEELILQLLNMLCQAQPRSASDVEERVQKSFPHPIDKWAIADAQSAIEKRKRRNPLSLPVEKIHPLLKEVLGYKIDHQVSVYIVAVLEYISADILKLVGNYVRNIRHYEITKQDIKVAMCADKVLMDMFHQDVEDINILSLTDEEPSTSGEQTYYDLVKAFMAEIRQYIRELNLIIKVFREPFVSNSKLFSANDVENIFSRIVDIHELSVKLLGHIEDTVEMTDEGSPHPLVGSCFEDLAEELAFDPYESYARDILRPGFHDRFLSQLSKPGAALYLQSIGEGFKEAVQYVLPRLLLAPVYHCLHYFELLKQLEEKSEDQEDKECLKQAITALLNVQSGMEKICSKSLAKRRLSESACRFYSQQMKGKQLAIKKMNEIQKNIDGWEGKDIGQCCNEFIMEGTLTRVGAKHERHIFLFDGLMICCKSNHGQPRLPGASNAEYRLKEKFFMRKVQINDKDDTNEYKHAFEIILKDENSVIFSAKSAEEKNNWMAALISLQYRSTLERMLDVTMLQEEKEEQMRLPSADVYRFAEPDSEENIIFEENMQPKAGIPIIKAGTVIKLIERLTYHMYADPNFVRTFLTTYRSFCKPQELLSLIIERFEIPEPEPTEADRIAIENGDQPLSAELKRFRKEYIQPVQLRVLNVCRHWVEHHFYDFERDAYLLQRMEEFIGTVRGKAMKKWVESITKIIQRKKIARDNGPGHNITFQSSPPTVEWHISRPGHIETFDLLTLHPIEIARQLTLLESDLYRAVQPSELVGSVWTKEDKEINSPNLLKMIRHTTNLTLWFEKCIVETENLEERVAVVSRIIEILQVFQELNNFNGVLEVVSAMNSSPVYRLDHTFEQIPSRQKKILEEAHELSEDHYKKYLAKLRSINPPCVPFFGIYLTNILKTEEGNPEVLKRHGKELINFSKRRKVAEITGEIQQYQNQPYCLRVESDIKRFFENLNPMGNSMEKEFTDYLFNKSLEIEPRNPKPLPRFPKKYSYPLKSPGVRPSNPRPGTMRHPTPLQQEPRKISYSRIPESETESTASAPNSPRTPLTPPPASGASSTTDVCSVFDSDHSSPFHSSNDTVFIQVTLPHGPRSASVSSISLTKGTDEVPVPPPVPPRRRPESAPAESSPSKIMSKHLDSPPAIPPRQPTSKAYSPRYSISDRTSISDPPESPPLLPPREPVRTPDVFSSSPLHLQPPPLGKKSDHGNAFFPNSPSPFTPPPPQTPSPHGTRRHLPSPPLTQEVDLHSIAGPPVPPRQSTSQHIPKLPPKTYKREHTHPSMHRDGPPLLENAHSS
Assay: SOS1 degradation by immunoblot in colorectal cancer cell lines
Format: cell-based
Parameters: endogenous in cells; host or cells: SW620, HCT116, C2BB, SW1417
Conditions: SW620 cells, 1 μM, different time points
Description: SW620, HCT116, C2BB, and SW1417 were purchased from the American Type Culture Collection. […] They were incubated under a 5% (v/v) CO2 atmosphere at 37° C.
Cells were plated in a 100 mm dish for incubation overnight before harvest for immunoblot. For drug treatment, cell confluency was checked prior to proceeding with the treatment. […] Approximately 40 μg protein samples were loaded into each well and separated by SDS-PAGE gel. After protein transfer onto nitrocellulose membranes, 5% skim milk in TBST was used to block the membranes for 1 hour at room temperature prior to incubation with primary antibodies overnight at 4° C. At the completion, a horseradish peroxidase-conjugated secondary antibody was applied at room temperature for 1 hour. The bands were visualized using Western Lightning Plus-ECL (PerkinElmer).

Time-dependent SOS1 degradation: not observed
Structure (SMILES): COc1cc2c(N[C@H](C)c3cc(N)cc(C(F)(F)F)c3)nc(C)nc2cc1OCc1cccc2c1C(=O)N(C1CCC(=O)NC1=O)C2=O (stereo partly drawn) [P2, 4-(((4-(((R)-1-(3-amino-S-(trifluoromethyl)phenyl)ethyl)amino)-6-methoxy-2-methylquinazolin-7-yl)oxy)methyl)-2-(2,6-dioxopiperidin-3-yl)isoindoline-1,3-dione]
